# Laboratory results: patent publication US20050197350A1, “Novel quinoline, tetrahydroquinazoline, and pyrimidine derivatives and methods of treatment related to the use thereof” (TAISHO PHARMACEUTICAL CO., LTD., priority 2003, published 2005)
# Test system: MCH receptors
# Test: MCH receptor activity class (method not given)
# Conditions: not given
row,class,Structure (SMILES)
1,1,"Cc1cc(N(C)C)nc(N[C@H]2CC[C@@H](NC(=O)c3ccc(F)c(F)c3)CC2)n1 [Example 2568, N-(cis-4-{[4-(dimethylamino)-6-methylpyrimidin-2-yl]amino}cyclohexyl)-3,4-difluorobenzamide]"
2,3,"Cc1cc(N(C)C)nc(N[C@H]2CC[C@@H](NC(=O)c3ccc(OC(F)(F)F)cc3)CC2)n1 [Example 2569, N-(cis-4-{[4-(dimethylamino)-6-methylpyrimidin-2-yl]amino}cyclohexyl)-4-(trifluoromethoxy)benzamide]"
3,1,"Cc1cc(N(C)C)nc(N[C@H]2CC[C@@H](NC(=O)c3ccc(F)cc3)CC2)n1 [Example 2570, N-(cis-4-{[4-(dimethylamino)-6-methylpyrimidin-2-yl]amino}cyclohexyl)-4-fluorobenzamide]"
4,1,"Cc1cc(N(C)C)nc(N[C@H]2CC[C@@H](C(=O)NCc3cccc(I)c3)CC2)n1 [Example 2571, cis-4-{[4-(dimethylamino)-6-methylpyrimidin-2-yl]amino}-N-(3-iodobenzyl)cyclohexanecarboxamide]"
5,1,"Cc1cc(N(C)C)nc(N[C@H]2CC[C@@H](C(=O)NCc3ccc(Cl)cc3Cl)CC2)n1 [Example 2572, cis-N-(2,4-dichlorobenzyl)-4-{[4-(dimethylamino)-6-methylpyrimidin-2-yl]amino}cyclohexanecarboxamide]"
6,1,"Cc1cc(N(C)C)nc(N[C@H]2CC[C@@H](C(=O)NCc3cc(Cl)ccc3Cl)CC2)n1 [Example 2573, cis-N-(2,5-dichlorobenzyl)-4-{[4-(dimethylamino)-6-methylpyrimidin-2-yl]amino}cyclohexanecarboxamide]"
7,1,"Cc1ccc(CNC(=O)[C@H]2CC[C@@H](Nc3nc(C)cc(N(C)C)n3)CC2)cc1 [Example 2574, cis-4-{[4-(dimethylamino)-6-methylpyrimidin-2-yl]amino}-N-(4-methylbenzyl)cyclohexanecarboxamide]"
8,1,"Cc1cc(N(C)C)nc(N[C@H]2CC[C@@H](C(=O)NCc3cc(Cl)cc(Cl)c3)CC2)n1 [Example 2575, cis-N-(3,5-dichlorobenzyl)-4-{[4-(dimethylamino)-6-methylpyrimidin-2-yl]amino}cyclohexanecarboxamide]"
9,1,"COc1cc(CNC(=O)[C@H]2CC[C@@H](Nc3nc(C)cc(N(C)C)n3)CC2)cc(OC)c1 [Example 2576, cis-N-(3,5-dimethoxybenzyl)-4-{[4-(dimethylamino)-6-methylpyrimidin-2-yl]amino}cyclohexanecarboxamide]"
10,1,"Cc1cc(N(C)C)nc(N[C@H]2CC[C@@H](C(=O)NCc3cccc(Cl)c3)CC2)n1 [Example 2577, cis-N-(3-chlorobenzyl)-4-{[4-(dimethylamino)-6-methylpyrimidin-2-yl]amino}cyclohexanecarboxamide]"
11,1,"Cc1cc(N(C)C)nc(N[C@H]2CC[C@@H](C(=O)NCc3cc(C(F)(F)F)cc(C(F)(F)F)c3)CC2)n1 [Example 2578, cis-N-[3,5-bis(trifluoromethyl)benzyl]-4-{[4-(dimethylamino)-6-methylpyrimidin-2-yl]amino}cyclohexanecarboxamide]"
12,1,"COc1cccc(CNC(=O)[C@H]2CC[C@@H](Nc3nc(C)cc(N(C)C)n3)CC2)c1 [Example 2579, cis-4-{[4-(dimethylamino)-6-methylpyrimidin-2-yl]amino}-N-(3-methoxybenzyl)cyclohexanecarboxamide]"
13,1,"Cc1cc(N(C)C)nc(N[C@H]2CC[C@@H](C(=O)NCc3ccc(Cl)cc3)CC2)n1 [Example 2580, cis-N-(4-chlorobenzyl)-4-{[4-(dimethylamino)-6-methylpyrimidin-2-yl]amino}cyclohexanecarboxamide]"
14,1,"Cc1cc(N(C)C)nc(N[C@H]2CC[C@@H](C(=O)NCc3ccc(Cl)c(Cl)c3)CC2)n1 [Example 2581, cis-N-(3,4-dichlorobenzyl)-4-{[4-(dimethylamino)-6-methylpyrimidin-2-yl]amino}cyclohexanecarboxamide]"
15,1,"Cc1cc(N(C)C)nc(N[C@H]2CC[C@@H](C(=O)NCc3ccc(F)cc3F)CC2)n1 [Example 2582, cis-N-(2,4-difluorobenzyl)-4-{[4-(dimethylamino)-6-methylpyrimidin-2-yl]amino}cyclohexanecarboxamide]"
16,1,"Cc1cc(N(C)C)nc(N[C@H]2CC[C@@H](C(=O)NCc3cc(F)ccc3F)CC2)n1 [Example 2583, cis-N-(2,5-difluorobenzyl)-4-{[4-(dimethylamino)-6-methylpyrimidin-2-yl]amino}cyclohexanecarboxamide]"
17,1,"Cc1cc(N(C)C)nc(N[C@H]2CC[C@@H](C(=O)NCc3cccc(F)c3F)CC2)n1 [Example 2584, cis-N-(2,3-difluorobenzyl)-4-{[4-(dimethylamino)-6-methylpyrimidin-2-yl]amino}cyclohexanecarboxamide]"
18,1,"Cc1cc(N(C)C)nc(N[C@H]2CC[C@@H](C(=O)NCc3ccc(Br)cc3F)CC2)n1 [Example 2585, cis-N-(4-bromo-2-fluorobenzyl)-4-{[4-(dimethylamino)-6-methylpyrimidin-2-yl]amino}cyclohexanecarboxamide]"
19,1,"Cc1cccc(CNC(=O)[C@H]2CC[C@@H](Nc3nc(C)cc(N(C)C)n3)CC2)c1 [Example 2586, cis-4-{[4-(dimethylamino)-6-methylpyrimidin-2-yl]amino}-N-(3-methylbenzyl)cyclohexanecarboxamide]"
20,1,"Cc1cc(N(C)C)nc(N[C@H]2CC[C@@H](C(=O)NCc3ccccc3OC(F)(F)F)CC2)n1 [Example 2587, cis-4-{[4-(dimethylamino)-6-methylpyrimidin-2-yl]amino}-N-[2-(trifluoromethoxy)benzyl]cyclohexanecarboxamide]"

# The remaining lines, values behind:
row,Structure (SMILES),class
1,"Cc1ccc(C(=O)N[C@H]2CC[C@@H](Nc3nc(C)cc(N(C)C)n3)CC2)cc1 [Example 2565, N-(cis-4-{[4-(dimethylamino)-6-methylpyrimidin-2-yl]amino}cyclohexyl)-4-methylbenzamide]",1
2,"Cc1cc(N(C)C)nc(N[C@H]2CC[C@@H](NC(=O)c3ccc(Cl)cc3)CC2)n1 [Example 2566, 4-chloro-N-(cis-4-{[4-(dimethylamino)-6-methylpyrimidin-2-yl]amino}cyclohexyl)benzamide]",1
3,"Cc1cc(N(C)C)nc(N[C@H]2CC[C@@H](NC(=O)c3cccc(Cl)c3)CC2)n1 [Example 2567, 3-chloro-N-(cis-4-{[4-(dimethylamino)-6-methylpyrimidin-2-yl]amino}cyclohexyl)benzamide]",1

# Same assay, conditions: MCH receptor; class by percent of control at 10^-7 M or IC50
row,Structure (SMILES),class
1,"COc1cccc(C(=O)N[C@H]2CC[C@@H](Nc3cc(N(C)C)c4ccccc4n3)CC2)c1 [compound 20, N-(cis-4-{[4-(dimethylamino)quinolin-2-yl]amino}cyclohexyl)-3-methoxybenzamide]",2 (Class 2: The value of percent of control at 10^−7 M was from 40% to 60% or the value of IC′50 was from 50 nM to 200 nM.)
2,CN(C)c1cc(N[C@H]2CC[C@@H](NC(=O)c3cccc(Br)c3)CC2)nc2ccccc12 [compound 21],1 (Class 1: The value of percent of control at 10^−7 M was less than 40% or the value of IC50 was less than 50 nM.)
3,CN(C)c1cc(N[C@H]2CC[C@@H](NC(=O)c3ccc(Br)cc3)CC2)nc2ccccc12 [compound 22],2 (Class 2: The value of percent of control at 10^−7 M was from 40% to 60% or the value of IC′50 was from 50 nM to 200 nM.)
4,"CN(C)c1cc(N[C@H]2CC[C@@H](NC(=O)c3ccc4nonc4c3)CC2)nc2ccccc12 [compound 23, N-(cis-4-{[4-(dimethylamino)quinolin-2-yl]amino}cyclohexyl)-2,1,3-benzoxadiazole-5-carboxamide]",1 (Class 1: The value of percent of control at 10^−7 M was less than 40% or the value of IC50 was less than 50 nM.)
5,CN(C)c1cc(N[C@H]2CC[C@@H](NC(=O)c3cccc(Cl)c3)CC2)nc2ccccc12 [compound 24],1 (Class 1: The value of percent of control at 10^−7 M was less than 40% or the value of IC50 was less than 50 nM.)
6,CN(C)c1cc(N[C@H]2CC[C@@H](NC(=O)c3ccc(Cl)cc3)CC2)nc2ccccc12 [compound 25],1 (Class 1: The value of percent of control at 10^−7 M was less than 40% or the value of IC50 was less than 50 nM.)
7,CN(C)c1cc(N[C@H]2CC[C@@H](NC(=O)/C=C/c3ccccc3)CC2)nc2ccccc12 [compound 26],3 (Class 3 The value of percent of control at 10^−7 M was more than 60% or the value of IC50 was more than 200 nM.)
8,"CN(C)c1cc(N[C@H]2CC[C@@H](NC(=O)c3ccc(Cl)c([N+](=O)[O-])c3)CC2)nc2ccccc12 [compound 27, 4-chloro-N-(cis-4-{[4-(dimethylamino)quinolin-2-yl]amino}cyclohexyl)-3-nitrobenzamide]",1 (Class 1: The value of percent of control at 10^−7 M was less than 40% or the value of IC50 was less than 50 nM.)
9,CN(C)c1cc(N[C@H]2CC[C@@H](NC(=O)Cc3ccc(Cl)cc3)CC2)nc2ccccc12 [compound 28],3 (Class 3 The value of percent of control at 10^−7 M was more than 60% or the value of IC50 was more than 200 nM.)
10,CN(C)c1cc(N[C@H]2CC[C@@H](NC(=O)c3cccc(C#N)c3)CC2)nc2ccccc12 [compound 29],2 (Class 2: The value of percent of control at 10^−7 M was from 40% to 60% or the value of IC′50 was from 50 nM to 200 nM.)
11,CN(C)c1cc(N[C@H]2CC[C@@H](NC(=O)c3cc(Cl)cc(Cl)c3)CC2)nc2ccccc12 [compound 30],2 (Class 2: The value of percent of control at 10^−7 M was from 40% to 60% or the value of IC′50 was from 50 nM to 200 nM.)
12,CN(C)c1cc(N[C@H]2CC[C@@H](NC(=O)c3ccc(Cl)c(Cl)c3)CC2)nc2ccccc12 [compound 31],1 (Class 1: The value of percent of control at 10^−7 M was less than 40% or the value of IC50 was less than 50 nM.)
13,"CN(C)c1cc(N[C@H]2CC[C@@H](NC(=O)C(c3ccccc3)c3ccccc3)CC2)nc2ccccc12 [compound 32, N-(cis-4-{[4-(dimethylamino)quinolin-2-yl]amino}cyclohexyl)-2,2-diphenylacetamide]",2 (Class 2: The value of percent of control at 10^−7 M was from 40% to 60% or the value of IC′50 was from 50 nM to 200 nM.)
